SMILES strings stand for the structures.

In the assay the target is T1, Fatty-acid amide hydrolase 1 (Mus musculus, UniProt O08914).
T1 sequence (O08914 whole entry): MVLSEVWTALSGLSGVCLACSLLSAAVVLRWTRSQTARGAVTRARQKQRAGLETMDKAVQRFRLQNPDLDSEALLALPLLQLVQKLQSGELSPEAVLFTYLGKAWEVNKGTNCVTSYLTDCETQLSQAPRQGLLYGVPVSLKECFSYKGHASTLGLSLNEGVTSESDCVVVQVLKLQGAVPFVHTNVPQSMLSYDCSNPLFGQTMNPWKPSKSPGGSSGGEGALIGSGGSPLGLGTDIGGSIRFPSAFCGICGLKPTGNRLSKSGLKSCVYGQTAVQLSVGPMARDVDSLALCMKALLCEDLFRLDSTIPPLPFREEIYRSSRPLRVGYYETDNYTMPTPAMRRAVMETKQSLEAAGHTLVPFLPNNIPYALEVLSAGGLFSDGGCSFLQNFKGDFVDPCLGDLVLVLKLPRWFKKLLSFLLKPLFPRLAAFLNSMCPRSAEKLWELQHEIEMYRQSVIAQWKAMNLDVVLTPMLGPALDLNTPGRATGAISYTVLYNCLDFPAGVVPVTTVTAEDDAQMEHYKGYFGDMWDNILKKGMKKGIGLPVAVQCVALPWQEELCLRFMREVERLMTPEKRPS
Nature of the assay: Inhibitory concentration against mouse fatty acid amide hydrolase. The format is functional.

The compound `NC(=O)CCC/C=C\C/C=C\C/C=C\C/C=C\CCCCCC12CC3CC(CC(C3)C1)C2` had an IC50 of 37.4 µM.

The IC50 is the concentration that gives 50% inhibition.
